{
  "source": "patent EP0366273A1",
  "about": "“Benzopyran derivatives with smooth muscle relaxant activity” (BEECHAM GROUP PLC, priority 1988, dated 1990)",
  "key": {"[1]": {"system": "Spontaneously hypertensive rats", "experiment": "Blood pressure lowering activity, tail cuff method", "assay_type": "in vivo", "details": "dose 1 mg/kg, initial blood pressure 265 ± 8 mmHg, 6 rats", "description": "Blood Pressure Lowering Activity\nSystolic blood pressures were recorded by a modification of the tail cuff method described by I.M. Claxton, M.G. Palfreyman, R.H. Poyser, R.L. Whiting, European Journal of Pharmacology, 37, 179 (1976). A W+W BP recorder, model 8005 was used to display pulses.Prior to all measurements rats were placed in a heated environment (33.5 ± 0.5°C) before transfer to a restraining cage. Each determination of blood pressure was the mean of at least 6 readings. Spontaneously hypertensive rats (ages 12-18 weeks) with systolic blood pressures >180 mmHg were considered hypertensive."}, "[2]": {"system": "guinea pig tracheal spiral preparations", "experiment": "Bronchodilation in vitro; guinea pig tracheal spiral preparations", "assay_type": "cell-based", "details": "relaxation relative to total relaxation evoked by 10⁻³M isoprenaline", "description": "(a) Bronchodilation in vitro; guinea pig tracheal spiral preparations.\nMale guinea pigs (300-600g) were stunned by a blow to the head and bled from the carotid artery. The trachea was exposed, dissected free of connective tissue, and transferred to oxygenated krebs solution at 37°C. Next, spirals (2 per trachea) were prepared by cutting the whole trachea spirally along its longitudinal axis and then dividing this spiral lengthwise. Each preparation was mounted, using silk thread, in a 10ml organ bath filled with krebs solution at 37°C and bubbled with 5% CO₂ with O₂. The resting tension of the preparations was set at 2g and changes in muscle tension were monitored isometrically by means of a UFI (2oz) force and displacement transducer (Ormed Ltd) connected to a Linseis pen recorder. […] During this equilibration period the preparations were washed by upward displacement at 15 minute intervals and, if necessary, the resting tension was readjusted to 2g using a mechanical micromanipulator system.\nOnce a steady resting tension had been obtained, the preparations were dosed cumulatively with the test compound (10⁻⁸-2x10⁻⁵M), and finally a maximum relaxation achieved by addition of 10⁻³M isoprenaline. The fall in tension evoked by the test compound was expressed as a percentage of the total relaxation evoked in the presence of 10⁻³M isoprenaline. […]"}},
  "data": [
    {"smiles": "CC1(C)Oc2ccc(C#N)cc2C(N2CCCC2=O)C1=O", "note": "(centres unmarked) [Example 1, 6-Cyano-3,4-dihydro-2,2 dimethyl-4-(2-oxopyrrolidin-1-yl)-2H-1-benzopyran-3-one]", "values": [
      {"measurement": "% Change in Systolic Blood Pressure", "setting": "[1]; 1 h post dose", "result": "-27 ± 5 (6 rats) %"},
      {"measurement": "% Change in Systolic Blood Pressure", "setting": "[1]; 2 h post dose", "result": "-24 ± 1 (6 rats) %"},
      {"measurement": "% Change in Systolic Blood Pressure", "setting": "[1]; 4 h post dose", "result": "-19 ± 6 (6 rats) %"},
      {"measurement": "% Change in Systolic Blood Pressure", "setting": "[1]; 6 h post dose", "result": "-25 ± 5 (6 rats) %"},
      {"measurement": "Intrinsic Activity", "setting": "[2]", "result": 0.89}
    ]}
  ]
}
